PMC11997881, “Comprehensive Characterization of Bruton’s Tyrosine Kinase Inhibitor Specificity, Potency, and Biological Effects: Insights into Covalent and Noncovalent Mechanistic Signatures” (ACS Pharmacology & Translational Science, 2025)

Key:
BTK = conditions: cited from earlier work
[1] = target: T1, JAK3 (JH1 catalytic domain) (Homo sapiens, UniProt P52333); assay: scanMAX binding POC, JAK3; conditions: 1 μM
T1 construct: The JAK3 POC is for its JH1 catalytic domain

JNK2 (MAPK9) = JNK2 (MAPK9) (Homo sapiens, UniProt P45984); assay: scanMAX binding POC, JNK2; conditions: 1 μM
Protocol: (§9) The compounds were diluted directly into the assays such that the final concentration of DMSO was 0.9%. No enzyme purification steps were performed on the protein extracts before adding them to the reaction mixture, and the protein extracts were diluted 10,000-fold in the final reaction mixture (the final DNA-tagged enzyme concentration was less than 0.1 nM). Binding assay mixtures were incubated at 25 °C with shaking for 1 h. […] The concentration of wild-type or mutant BTK in the eluates was then determined using quantitative PCR. […] Each assay’s affinity ligand concentration on the magnetic beads has been optimized to ensure that the true thermodynamic Kd values for competitor molecules were measured, as described in detail previously99.
(§10) Comparison of BTK inhibitor specificity to c-Jun N-terminal kinases (JNK1-3/MAPKP8-10).
(§11) a The percent of control (POC) is the percent of kinase that was competed off its control ligand relative to the positive and negative controls at the screening concentration56. A zero POC signifies that the compound

JNK3 (MAPK10) = JNK3 (MAPK10) (Homo sapiens, UniProt P53779); assay: scanMAX binding POC, JNK3; conditions: 1 μM
Protocol: as §9, §10, §11

ITK = target: T2, ITK (Homo sapiens, UniProt Q08881); assay: scanMAX binding POC, ITK; conditions: 1 μM
T2 sequence (Q08881 1-620): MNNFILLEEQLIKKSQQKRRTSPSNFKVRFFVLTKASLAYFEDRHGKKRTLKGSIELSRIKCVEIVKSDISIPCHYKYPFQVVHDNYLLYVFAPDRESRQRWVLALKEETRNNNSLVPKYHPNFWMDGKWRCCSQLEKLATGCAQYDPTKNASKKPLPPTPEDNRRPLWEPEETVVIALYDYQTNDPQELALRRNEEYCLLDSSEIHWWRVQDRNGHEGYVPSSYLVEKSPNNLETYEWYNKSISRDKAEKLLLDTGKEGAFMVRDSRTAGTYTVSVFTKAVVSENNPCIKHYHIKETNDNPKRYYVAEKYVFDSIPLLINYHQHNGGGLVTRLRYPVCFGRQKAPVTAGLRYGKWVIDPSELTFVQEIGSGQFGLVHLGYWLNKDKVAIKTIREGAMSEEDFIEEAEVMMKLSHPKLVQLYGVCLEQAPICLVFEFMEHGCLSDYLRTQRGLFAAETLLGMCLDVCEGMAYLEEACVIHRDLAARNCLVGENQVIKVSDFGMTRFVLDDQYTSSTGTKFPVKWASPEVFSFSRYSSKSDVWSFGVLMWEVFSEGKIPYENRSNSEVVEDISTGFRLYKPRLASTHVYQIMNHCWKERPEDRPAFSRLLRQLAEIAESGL
Text: (§1) Comprehensive Characterization of Bruton’s Tyrosine Kinase Inhibitor Specificity, Potency, and
(§2) Biological Effects: Insights into Covalent and Non-Covalent Mechanistic Signatures
(§3) Antonia C. Darragh1, Andrew M. Hanna1, Justin H. Lipner2, Alastair J. King2, Nicole B. Servant1, Mirza Jahic1*
(§4) *To whom correspondence should be addressed: Mirza Jahic, e-mail address: Mirza.Jahic@discovery.eurofinsus.com
(§5) Supporting Table S1. Comparison of BTK inhibitor specificity to TEC family members. TEC family members are
(§6) Burton’s tyrosine kinase (BTK), tyrosine kinase expressed in hepatocellular carcinoma (TEC), bone marrow-
(§7) expressed kinase (BMX/ETK), and T cell-expressed kinase (TXK/RLK), and interleukin-2-inducible T cell kinase
(§8) A zero POC signifies that the compound

ERBB2 = ERBB2 (Homo sapiens, UniProt P04626); assay: scanMAX binding POC, ERBB2; conditions: 1 μM
BLK = BLK (Homo sapiens, UniProt P51451); assay: scanMAX binding POC, BLK; conditions: 1 μM
TXK = target: T3, TXK (Homo sapiens, UniProt P42681); assay: scanMAX binding POC, TXK; conditions: 1 μM
T3 sequence (P42681 1-527): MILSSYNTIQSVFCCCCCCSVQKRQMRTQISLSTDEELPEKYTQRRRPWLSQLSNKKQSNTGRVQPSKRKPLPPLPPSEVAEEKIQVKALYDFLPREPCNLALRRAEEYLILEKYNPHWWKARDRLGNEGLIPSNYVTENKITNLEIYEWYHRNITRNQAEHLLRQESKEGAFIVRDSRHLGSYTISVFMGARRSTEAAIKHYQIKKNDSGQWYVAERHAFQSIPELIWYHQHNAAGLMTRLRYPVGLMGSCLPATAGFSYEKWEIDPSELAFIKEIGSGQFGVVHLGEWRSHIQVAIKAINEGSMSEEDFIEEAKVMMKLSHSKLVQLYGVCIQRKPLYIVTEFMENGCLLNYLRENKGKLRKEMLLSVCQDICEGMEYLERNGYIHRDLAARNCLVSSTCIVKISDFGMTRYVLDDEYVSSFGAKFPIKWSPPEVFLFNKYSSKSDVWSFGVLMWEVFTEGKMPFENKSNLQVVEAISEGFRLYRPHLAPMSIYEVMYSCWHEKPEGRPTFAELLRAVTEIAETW
Text: as §1, §2, §3, §4, §5, §6, §7, §8

EGFR = EGFR (Homo sapiens, UniProt P00533); assay: scanMAX binding POC, EGFR; conditions: 1 μM
MKK7 = target: T4, MKK7 (Homo sapiens, UniProt O14733); assay: scanMAX binding POC, MKK7; conditions: 1 μM
T4 sequence (O14733 1-419): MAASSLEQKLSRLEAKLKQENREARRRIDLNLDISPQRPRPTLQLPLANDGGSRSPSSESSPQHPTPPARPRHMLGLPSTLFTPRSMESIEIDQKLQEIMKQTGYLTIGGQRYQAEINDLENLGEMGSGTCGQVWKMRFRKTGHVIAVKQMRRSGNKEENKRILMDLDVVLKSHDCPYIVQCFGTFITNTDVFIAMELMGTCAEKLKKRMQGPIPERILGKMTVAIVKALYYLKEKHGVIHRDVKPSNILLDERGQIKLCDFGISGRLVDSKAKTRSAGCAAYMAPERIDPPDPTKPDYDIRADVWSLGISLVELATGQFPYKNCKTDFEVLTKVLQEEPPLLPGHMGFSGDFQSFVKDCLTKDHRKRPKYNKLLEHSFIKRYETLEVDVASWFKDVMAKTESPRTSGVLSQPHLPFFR

ERBB4 = ERBB4 (Homo sapiens, UniProt Q15303); assay: scanMAX binding POC, ERBB4; conditions: 1 μM
ERBB3 = ERBB3 (Homo sapiens, UniProt P21860); assay: scanMAX binding POC, ERBB3; conditions: 1 μM
Sequence of ERBB3 (P21860 20-1342): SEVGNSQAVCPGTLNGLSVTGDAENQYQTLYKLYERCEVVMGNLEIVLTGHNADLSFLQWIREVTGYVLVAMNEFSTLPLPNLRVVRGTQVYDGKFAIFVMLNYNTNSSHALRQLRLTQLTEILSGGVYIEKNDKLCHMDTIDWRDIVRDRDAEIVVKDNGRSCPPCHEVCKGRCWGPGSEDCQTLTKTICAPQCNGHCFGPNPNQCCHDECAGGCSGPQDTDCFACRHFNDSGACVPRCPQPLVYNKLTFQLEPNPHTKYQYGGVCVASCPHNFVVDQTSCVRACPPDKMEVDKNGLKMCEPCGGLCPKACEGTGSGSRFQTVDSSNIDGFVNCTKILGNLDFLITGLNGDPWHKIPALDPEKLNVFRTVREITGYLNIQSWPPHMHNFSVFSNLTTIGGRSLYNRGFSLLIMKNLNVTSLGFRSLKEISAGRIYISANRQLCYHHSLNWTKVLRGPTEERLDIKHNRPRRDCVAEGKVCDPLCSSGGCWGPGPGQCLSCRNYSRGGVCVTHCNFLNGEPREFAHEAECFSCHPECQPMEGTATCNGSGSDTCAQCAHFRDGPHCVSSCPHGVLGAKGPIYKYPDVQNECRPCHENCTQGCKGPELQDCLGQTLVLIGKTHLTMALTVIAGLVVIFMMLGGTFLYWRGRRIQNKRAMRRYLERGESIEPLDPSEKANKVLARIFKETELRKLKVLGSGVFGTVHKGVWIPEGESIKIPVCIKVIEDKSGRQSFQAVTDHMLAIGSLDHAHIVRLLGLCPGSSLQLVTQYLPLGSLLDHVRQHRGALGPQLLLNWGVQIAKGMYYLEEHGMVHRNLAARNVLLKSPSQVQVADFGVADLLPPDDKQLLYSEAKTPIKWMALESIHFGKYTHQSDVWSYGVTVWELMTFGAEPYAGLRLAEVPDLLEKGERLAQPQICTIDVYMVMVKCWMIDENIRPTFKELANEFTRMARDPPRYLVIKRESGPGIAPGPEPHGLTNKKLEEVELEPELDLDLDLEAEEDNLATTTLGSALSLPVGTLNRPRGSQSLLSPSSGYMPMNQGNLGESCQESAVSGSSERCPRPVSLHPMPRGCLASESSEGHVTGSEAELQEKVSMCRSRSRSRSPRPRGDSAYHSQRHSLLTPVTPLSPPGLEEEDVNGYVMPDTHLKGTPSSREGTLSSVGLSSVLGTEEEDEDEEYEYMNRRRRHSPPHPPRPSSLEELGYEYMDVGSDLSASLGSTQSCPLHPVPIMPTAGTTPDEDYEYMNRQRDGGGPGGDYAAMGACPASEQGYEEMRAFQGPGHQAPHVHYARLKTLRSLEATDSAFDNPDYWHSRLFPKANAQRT

Sequence of ERBB4 (Q15303 26-1308): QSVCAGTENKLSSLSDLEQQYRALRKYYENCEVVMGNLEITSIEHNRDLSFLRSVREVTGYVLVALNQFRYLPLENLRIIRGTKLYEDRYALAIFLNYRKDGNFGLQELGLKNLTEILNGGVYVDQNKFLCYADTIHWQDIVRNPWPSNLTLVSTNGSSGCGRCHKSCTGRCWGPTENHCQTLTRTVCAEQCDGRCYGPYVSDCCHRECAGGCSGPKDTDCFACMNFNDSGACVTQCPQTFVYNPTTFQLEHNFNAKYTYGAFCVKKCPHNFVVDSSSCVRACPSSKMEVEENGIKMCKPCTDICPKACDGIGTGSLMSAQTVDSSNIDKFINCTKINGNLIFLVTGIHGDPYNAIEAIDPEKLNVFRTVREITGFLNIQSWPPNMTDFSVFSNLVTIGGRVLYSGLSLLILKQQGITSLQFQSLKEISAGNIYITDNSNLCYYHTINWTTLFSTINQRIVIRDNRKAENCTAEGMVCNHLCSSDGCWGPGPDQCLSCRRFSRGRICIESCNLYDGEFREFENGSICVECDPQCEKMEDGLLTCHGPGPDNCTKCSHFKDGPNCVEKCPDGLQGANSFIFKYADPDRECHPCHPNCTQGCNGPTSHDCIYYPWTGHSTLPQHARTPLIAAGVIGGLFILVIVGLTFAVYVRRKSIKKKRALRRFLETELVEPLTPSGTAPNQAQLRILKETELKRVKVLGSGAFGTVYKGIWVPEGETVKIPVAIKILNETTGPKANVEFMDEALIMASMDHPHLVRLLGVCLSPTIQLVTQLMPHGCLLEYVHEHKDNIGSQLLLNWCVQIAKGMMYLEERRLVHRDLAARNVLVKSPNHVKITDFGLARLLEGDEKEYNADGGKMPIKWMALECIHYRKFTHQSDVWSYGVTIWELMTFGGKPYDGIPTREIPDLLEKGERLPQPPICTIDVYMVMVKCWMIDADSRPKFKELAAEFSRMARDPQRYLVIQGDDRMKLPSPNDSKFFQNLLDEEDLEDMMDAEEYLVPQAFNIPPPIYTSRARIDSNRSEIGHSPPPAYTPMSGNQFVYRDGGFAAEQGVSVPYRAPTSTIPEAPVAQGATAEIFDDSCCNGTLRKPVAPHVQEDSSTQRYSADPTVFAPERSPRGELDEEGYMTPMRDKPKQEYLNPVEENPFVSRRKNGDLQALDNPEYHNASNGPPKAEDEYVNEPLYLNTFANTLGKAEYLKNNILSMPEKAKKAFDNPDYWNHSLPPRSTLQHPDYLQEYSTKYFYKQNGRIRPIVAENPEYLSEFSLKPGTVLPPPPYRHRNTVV
Sequence of EGFR (P00533 25-1210): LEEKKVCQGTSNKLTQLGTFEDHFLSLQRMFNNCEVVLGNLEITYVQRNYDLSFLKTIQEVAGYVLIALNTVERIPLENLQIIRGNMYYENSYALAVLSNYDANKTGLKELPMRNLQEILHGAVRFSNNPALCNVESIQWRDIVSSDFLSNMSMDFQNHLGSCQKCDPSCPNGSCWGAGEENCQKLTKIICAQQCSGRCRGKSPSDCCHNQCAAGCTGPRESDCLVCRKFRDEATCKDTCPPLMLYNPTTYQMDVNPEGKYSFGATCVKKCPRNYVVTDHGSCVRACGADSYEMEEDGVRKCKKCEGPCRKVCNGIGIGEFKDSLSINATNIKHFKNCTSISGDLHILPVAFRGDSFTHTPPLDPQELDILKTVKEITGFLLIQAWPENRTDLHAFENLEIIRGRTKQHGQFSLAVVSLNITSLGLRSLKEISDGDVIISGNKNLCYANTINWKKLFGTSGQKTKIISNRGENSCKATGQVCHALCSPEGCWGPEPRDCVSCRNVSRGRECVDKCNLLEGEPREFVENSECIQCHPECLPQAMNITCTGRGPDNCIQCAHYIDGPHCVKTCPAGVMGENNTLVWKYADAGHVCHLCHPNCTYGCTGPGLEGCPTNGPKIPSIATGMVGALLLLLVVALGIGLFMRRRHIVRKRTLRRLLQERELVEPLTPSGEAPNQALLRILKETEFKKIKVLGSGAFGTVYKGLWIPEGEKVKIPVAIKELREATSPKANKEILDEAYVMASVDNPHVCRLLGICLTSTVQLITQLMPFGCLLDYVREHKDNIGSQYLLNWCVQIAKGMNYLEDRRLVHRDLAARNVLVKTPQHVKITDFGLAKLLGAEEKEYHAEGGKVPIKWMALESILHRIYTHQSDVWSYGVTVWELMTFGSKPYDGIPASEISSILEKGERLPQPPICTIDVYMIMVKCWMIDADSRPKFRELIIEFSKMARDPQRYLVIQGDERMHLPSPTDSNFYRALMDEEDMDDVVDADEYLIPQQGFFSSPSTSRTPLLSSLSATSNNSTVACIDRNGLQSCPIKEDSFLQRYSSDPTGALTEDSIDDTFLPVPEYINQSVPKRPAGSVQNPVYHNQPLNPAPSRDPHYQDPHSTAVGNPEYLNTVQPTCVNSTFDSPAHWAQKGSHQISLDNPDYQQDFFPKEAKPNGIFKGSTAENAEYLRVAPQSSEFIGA
Sequence of JNK3 (MAPK10) (P53779 whole entry): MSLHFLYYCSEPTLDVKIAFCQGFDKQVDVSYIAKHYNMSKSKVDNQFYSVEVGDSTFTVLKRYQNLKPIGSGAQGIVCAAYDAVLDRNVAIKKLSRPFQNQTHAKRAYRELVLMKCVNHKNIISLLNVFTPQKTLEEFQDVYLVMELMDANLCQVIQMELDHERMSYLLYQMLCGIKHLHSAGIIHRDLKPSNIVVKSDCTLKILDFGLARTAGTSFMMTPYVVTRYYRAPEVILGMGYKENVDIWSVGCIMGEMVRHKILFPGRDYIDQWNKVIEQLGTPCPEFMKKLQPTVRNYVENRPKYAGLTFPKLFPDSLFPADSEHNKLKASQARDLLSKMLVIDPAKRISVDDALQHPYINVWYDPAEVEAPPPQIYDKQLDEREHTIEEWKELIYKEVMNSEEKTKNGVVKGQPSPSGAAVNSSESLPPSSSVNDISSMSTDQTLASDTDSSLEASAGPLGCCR
Sequence of BLK (P51451 whole entry): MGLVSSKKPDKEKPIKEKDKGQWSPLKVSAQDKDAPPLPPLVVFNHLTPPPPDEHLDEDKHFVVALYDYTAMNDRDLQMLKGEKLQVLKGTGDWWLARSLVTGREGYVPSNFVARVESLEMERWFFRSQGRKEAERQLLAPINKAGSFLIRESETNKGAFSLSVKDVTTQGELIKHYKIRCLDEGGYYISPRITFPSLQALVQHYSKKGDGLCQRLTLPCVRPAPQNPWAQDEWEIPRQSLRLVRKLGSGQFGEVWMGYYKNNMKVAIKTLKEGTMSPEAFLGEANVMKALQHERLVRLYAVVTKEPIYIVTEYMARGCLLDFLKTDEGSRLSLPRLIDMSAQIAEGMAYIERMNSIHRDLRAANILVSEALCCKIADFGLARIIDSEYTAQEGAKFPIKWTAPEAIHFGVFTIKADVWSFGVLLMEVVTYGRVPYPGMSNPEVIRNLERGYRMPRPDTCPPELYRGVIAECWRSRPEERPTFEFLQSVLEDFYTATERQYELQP
T1 sequence (P52333 822-1111 limits assumed): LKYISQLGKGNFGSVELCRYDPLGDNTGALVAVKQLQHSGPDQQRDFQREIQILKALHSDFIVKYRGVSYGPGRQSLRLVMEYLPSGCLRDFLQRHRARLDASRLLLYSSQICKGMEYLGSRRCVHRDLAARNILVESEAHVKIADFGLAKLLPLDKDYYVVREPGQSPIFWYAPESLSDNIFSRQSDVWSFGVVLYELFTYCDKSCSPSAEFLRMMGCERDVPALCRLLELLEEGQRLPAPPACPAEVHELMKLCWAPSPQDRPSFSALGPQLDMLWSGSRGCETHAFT

Compound | IC50 (BTK) [nM] | JAK3 binding POC [1] | JNK2 (MAPK9) POC (JNK2 (MAPK9)) | JNK3 (MAPK10) POC (JNK3 (MAPK10)) | ITK binding POC (ITK) | ERBB2 binding POC (ERBB2) | BLK binding POC (BLK) | TXK binding POC (TXK) | EGFR binding POC (EGFR) | MKK7 binding POC (MKK7) | MKK7 binding POC (MKK7; listed as elsubrutinib) | ERBB4 binding POC (ERBB4) | ERBB3 binding POC (ERBB3)
C=CC(=O)N1CCC[C@@H](c2ccc(C(N)=O)c3[nH]ccc23)C1 [Elsubrutinib] | 180 | 0.15% of control | 91% of control | 94% of control | 94% of control | 73% of control | 15% of control | 25% of control | 90% of control | 24% of control | weak hit | 91% of control | 74% of control
C[C@H]1CN(C2COC2)CCN1c1ccc(Nc2cc(-c3ccnc(N4CCn5c(cc6c5CC(C)(C)C6)C4=O)c3CO)cn(C)c2=O)nc1 [Fenebrutinib] | 2.3 | 95% of control | 100% of control | 100% of control | 25% of control | 97% of control | 60% of control | 53% of control | 95% of control | 89% of control |  | 100% of control | 78% of control
O=C(c1ccc(Oc2ccccc2)cc1Cl)c1c[nH]c2ncnc(N[C@@H]3CC[C@@H](CO)OC3)c12 [Nemtabrutinib] | 0.85 | 86% of control | 100% of control | 100% of control | 86% of control | 0% of control | 0.3% of control | 2.7% of control | 0% of control | 39% of control |  | 0.35% of control | 0.9% of control
COc1ccc(F)cc1C(=O)NCc1ccc(-c2nn([C@@H](C)C(F)(F)F)c(N)c2C(N)=O)cc1 [Pirtobrutinib] | 3.2 | 77% of control | 94% of control | 100% of control | 100% of control | 5.9% of control | 69% of control | 11% of control | 0.5% of control | 91% of control |  | 2% of control | 97% of control
C=CC(=O)Nc1cccc(Oc2nc(Nc3ccc(N4CCN(C)CC4)cc3)nc3ccoc23)c1 [Poseltinib] | 3 | 0.45% of control | 100% of control | 100% of control | 1% of control | 8.7% of control | 0.85% of control | 4.4% of control | 1.2% of control | 100% of control |  | 0.15% of control | 97% of control
C=CC(=O)Nc1cccc(Nc2nc(Nc3ccc(OCCOC)cc3)ncc2F)c1 [Spebrutinib] | […] | 0% of control | 8.4% of control | 3.9% of control | 51% of control | 57% of control | 22% of control | 4.5% of control | 49% of control | 79% of control |  | 17% of control | 83% of control
